{"source": "the NIST ThermoML archive (doi:10.1016/j.jct.2012.01.018)", "key": {"[1]": {"assay": "molar enthalpy of vaporization or sublimation", "details": "298.15 K; Crystal; drop calorimetry"}, "[2]": {"details": "Crystal; visual observation"}}, "note": "± gives the expanded uncertainty stated by the source.", "data": [{"smiles": "O=[N+]([O-])c1cccc2nsnc12", "note": "[4-nitro-2,1,3-benzothiadiazole]", "values": [{"measurement": "molar enthalpy", "setting": "[1]", "value": "24.3 ± 2.06", "unit": "kcal/mol"}, {"measurement": "Normal melting temperature", "setting": "[2]", "value": "110 ± 1", "unit": "°C"}]}]}
